Data on 6 substances can be found in publication PMC5701947, “β1-Adrenergic Receptor Contains Multiple IA^k and IE^k Binding Epitopes That Induce T Cell Responses with Varying Degrees of Autoimmune Myocarditis in A/J Mice” (Frontiers in Immunology, 2017).

No end group written: not given here.

Assay [1] relates to T cells (lymph node cells/splenocytes from immunized animals). Nature of the assay: T cell proliferation assay ([3H]-thymidine). It is filed as cell-based, A/J mice. The note with it: for T cell responses (in words): proliferation, 0–100 µg/ml, 2 days + 16 h [3H]-thymidine, cpm; for T cell responses: fold vs medium control. A digest of the protocol:
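Lymph node cells and splenocytes from immunized animals, or magnetically enriched CD4/CD8 T cells (~95% pure) plus peptide-loaded irradiated syngeneic naive splenocytes (1:1), stimulated at ~5 × 10^6 cells/ml with immunizing peptide (0–100 µg/ml) for 2 days. Pulsed with [3H]-thymidine for 16 h; proliferation read as cpm.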

Assay [2] relates to CD4 T cells. Nature of the assay: T cell proliferation assay, enriched CD4 T cells. It is filed as cell-based, A/J mice. The note with it: CD4 T cells ~95% purity from immunized mice; peptide-loaded irradiated splenocytes 1:1; Figure S3B. As to the method: (§1) At termination, lymph nodes (maxillary, mandibular, axillary, inguinal, and popliteal) and spleens were harvested from immunized animals to prepare single cell suspensions. Similarly, splenocytes were prepared from naive animals. After lysing the erythrocytes and washing, cell pellets were suspended in RPMI medium containing 10% fetal bovine serum, 1 mM sodium pyruvate, 4 mM L-glutamine, 1 × each of non-essential amino acids and vitamin mixture, and 100 U/ml penicillin–streptomycin (Lonza, Walkersville, MD, USA; hereafter called growth medium). In some experiments, CD4 T cells and CD8 T cells were enriched to a purity of ~95% by negative selection based on magnetic separation using IMAG (BD Biosciences, San Jose, CA, USA) ([31]). To stimulate CD4 and CD8 T cells, syngeneic naive irradiated splenocytes loaded with peptides were used as antigen-presenting cells at a ratio of 1:1. Cells were stimulated at a density of ~5 × 10^6 cells/ml in triplicates with or without the immunizing peptides (0–100 µg/ml) in growth medium. RNase 43–56 or HEL 46–61 were used as irrelevant controls. After 2 days, cells were pulsed with tritiated ^3[H]-thymidine (1 μCi/well; MP Biomedicals, Santa Ana, CA, USA), and 16 h later, proliferative responses were measured as counts per minute (cpm) using a Wallac liquid scintillation counter (Perkin Elmer, Waltham, MA, USA) ([26], [28], [30]).

A further assay has as its system CD8 T cells. Nature of the assay: T cell proliferation assay, enriched CD8 T cells. Format: cell-based, A/J mice. As to conditions: CD8 T cells ~95% purity from immunized mice; peptide-loaded irradiated splenocytes 1:1; Figure S3B. As to the method: as §1
In assay [3] the test system is serum antibodies (Igs and isotypes) of immunized mice. Nature of the assay: ELISA, antibodies that react with β1ARAc peptides. It is filed as in vivo, A/J mice. The note with it: serum 1:100, day 21, OD 405 nm; five animals per group. As to the method:
ELISA was used to measure antibodies that react with β1ARAc peptides in the serum samples collected from immunized animals at termination on day 21 as described previously ([26]). […] After washing/blocking, serum samples (1:100) were added in duplicates, and the plates were incubated at 37°C for 1 h followed by addition of HRP-labeled goat anti-mouse immunoglobulins (Igs), IgG1, IgG2a, IgG2b, IgG3, IgM, IgA, and IgE (Southern Biotech, Birmingham, AL, USA) as secondary antibodies. Two hours after incubation at RT, 1 × tetramethylbenzidine solution was added as a substrate (eBioscience), and reactions were stopped using 1 M phosphoric acid. The plates were read at 405 nm using an automated ELISA reader (BioTek instruments, Winooski, VT, USA) to measure OD values ([26], [46]).

Assay [4] relates to CD4 T cells. Put plainly: IA^k dextramer staining of CD4 T cells. It is filed as cell-based, A/J mice. The note with it: IA^k dextramers. The source says:
(§2) To enumerate the frequencies of antigen-specific CD4 T cells, we created IA^k dextramers for β1AR 171-190 and β1AR 211–230, and IE^k dextramers for β1AR 181–200. To create IA^k dextramers, the nucleotide sequence for β1AR 171–190 ([…]) and β1AR 211–230 ([…]) was inserted into the IA^k-β construct that we had described previously ([35], [39]), whereas IA^k/RNase 43–56 (control) dextramers were readily available in our laboratory ([30], [35], [40]). The soluble, IA^k/β1AR 171–190 and IA^k/β1AR 211–230 molecules were expressed in sf9 cells using baculovirus expression system. After purifying through anti-IA^k-affinity column, the IA^k/β1AR 171–190 and IA^k/β1AR 211–230 monomers were biotinylated and dextramers were derived using streptavidin (SA)/fluorophore-conjugated dextran molecules as described previously ([35], [39]). […]
(§3) To stain with dextramers, lymphocytes obtained from lymph nodes and spleens from immunized animals were stimulated with the immunizing peptides namely, β1ARAc 171–190, β1ARAc 181–200, and β1ARAc 211–230 (20 µg/ml) for 2 days and growth medium containing interleukin (IL)-2 (IL-2 medium) was then added. […] After washing, and acquisition by flow cytometry, percent dextramer^+ (dext^+) cells were analyzed within the live cells (7-AAD^−) using Flow Jo software ([34], [35], [39]).

Assay [5] has as its system lymph node cell (LNC) cultures. Put plainly: Cytokine secretion (bead array). Format: cell-based, A/J mice. As to conditions: LNC supernatants, 50–100 µg/ml, day 3; P = 0.06. As to the method:
Supernatants were obtained from lymph node cell (LNC) cultures prepared from immunized animals that were stimulated with or without acetylated or non-acetylated, β1AR 171–190, β1AR 181–200, and β1AR 211–230 and RNase 43–56/HEL 46–61 (controls) (50–100 µg/ml) on day 3 poststimulations. Cytokine analysis was performed using beads conjugated with capture and detection Abs with the standard curves being derived from serial dilutions of mouse cytokine standard mixtures, consisting of IL-2, interferon (IFN)-γ, IL-4, IL-6, IL-10, IL-17A, and tumor necrosis factor (TNF)-α as recommended by the manufacturer’s guidelines (BD Biosciences). Briefly, capture bead/cytokine antibody conjugates were first prepared, and the mixtures were added to a tube containing diluted standards or test samples, followed by addition of detection antibodies. After acquiring by flow cytometry, FCAP Array Software was used to analyze the data (BD Biosciences) ([26], [30]).

Another assay concerns A/J mice (hearts). Put plainly: Induction of myocarditis by active immunization with peptides (histology). Format: in vivo. The note with it: for Myocarditis incidence / Myocarditis incidence (animals with disease/total) / Inflammatory foci: individual non-acetylated peptide, 100 µg per animal; for Myocarditis incidence / Myocarditis incidence (animals with disease/total): CFA/PT, days 0 and 7, day 21; for Inflammatory foci: mean ± SEM of myocarditic animals.

The subject of assay [6] is CD4 T cells. Put plainly: IE^k dextramer staining of CD4 T cells. It is filed as cell-based, A/J mice. The note with it: IE^k dextramers; cells from β1ARAc 181–200-immunized mice; P = 0.028 vs control dextramer; Figure 4B.
Excerpt: as §2, §3

Another assay has as its system Balb/c mice. As to conditions: cited from earlier work. From the text:
It has been proposed that acetylated peptides can be prevented from intracellular degradation leading to their stable binding to MHC molecules ([29], [50]). Thus, we decided to use the acetylated peptides, and focused only the peptides that were located within the stretch of β1AR 171–230 (Table 1).

The next assay concerns antigen-primed T cells. Nature of the assay: Cytokine-producing cells after Th1/Th17 polarization (flow cytometry). The note with it: Figure S4. Format: cell-based, A/J mice. The procedure:
Lymph node cells obtained from animals immunized with individual peptides, β1ARAc 171–190, β1ARAc 181–200, or β1ARAc 211–230 on day 21 postimmunizations were stimulated with the corresponding immunizing peptides (20 µg/ml) for 2 days followed by resting in IL-2 medium. In a separate set of experiments, animals were immunized with a mixture of β1ARAc 171–190, 181–200, and 211–230 peptides and their lymphocytes were stimulated with the immunizing peptides individually (50 µg/ml) for 2 days and then IL-2 medium was added. On day 3, one of the two aliquots of cells were exposed to a mixture of Th1- and Th17-polarizing conditions by adding recombinant mouse IL-12 (20 ng/ml), IL-1β (30 ng/ml), IL-6 (30 ng/ml), IL-23 (50 ng/ml) (all cytokines were procured from BioLegend, San Diego, CA, USA), and human transforming growth factor-β1 (10 ng/ml; eBioscience, San Diego, CA, USA) as reported previously ([41]–[44]), and the other was maintained in IL-2 medium alone. Flow cytometrically, we analyzed the percentages of cytokine-producing cells on days 3 and 6 following polarization as we have described previously ([28], [31], [40]). Viable cells harvested on days 8–10 were administered through i.p., or retro-orbital sinus (4–14 × 10^6 cells/animal) into naive mice primed with lipopolysaccharide (LPS, 25 µg/mouse i.p., day −4 and day 0). […]
(In general: Flow cytometry measures light scatter and fluorescence of single cells or particles in a stream.)

Setting [7] is: 10 μg/ml, animals immunized with pool IV.
Setting [8] is: 100 μg/ml, animals immunized with pool IV.

Turning to YNTDGSTDYGILQINSR [HEL 46–61], in assay [1], the “T cell responses (in words)” value is given as “lacking”. Besides, the “CD4 T cell proliferative response (in words)” value in the assay with CD4 T cells [2] is reported as “lacking”. For the same substance, the “CD8 T cell proliferative response (in words)” value with CD8 T cells is “lacking”.
Take “VNTFVHESLADVQA [RNase 43–56, bovine ribonuclease 43–56, irrelevant control, reference compound]”: the T cell responses in [1] (10 μg/ml, animals immunized with pool I) turned out to be 1.05 fold; in [1] (10 μg/ml, animals immunized with pool II), 1.06 fold; in assay [1] (10 μg/ml, animals immunized with pool III) it was 1.04 fold; in assay [1] (setting [7]), 1.06 fold; in [1] (10 μg/ml, animals immunized with pool IX), 0.80 fold; in assay [1] (10 μg/ml, animals immunized with pool V) it was 1.06 fold. The T cell responses in assay [1] (10 μg/ml, animals immunized with pool VI) was found to be 0.73 fold; in [1] (10 μg/ml, animals immunized with pool VII), 1.16 fold; in [1] (10 μg/ml, animals immunized with pool VIII), 0.91 fold; in assay [1] (100 μg/ml, animals immunized with pool I) it was 1.42 fold; in assay [1] (100 μg/ml, animals immunized with pool II), 1.20 fold; in assay [1] (100 μg/ml, animals immunized with pool III), 1.14 fold. Further, the T cell responses was 1.15 fold in assay [1] (setting [8]); 0.83 fold in [1] (100 μg/ml, animals immunized with pool IX); 1.14 fold in assay [1] (100 μg/ml, animals immunized with pool V); 1.10 fold in assay [1] (100 μg/ml, animals immunized with pool VI); 1.16 fold in [1] (100 μg/ml, animals immunized with pool VII); 0.81 fold in assay [1] (100 μg/ml, animals immunized with pool VIII). In addition, the “T cell responses (in words)” value in [1] was “lacking”. Further, the “Antibody response, total Igs (in words)” value in assay [3] is on record as “lacking”. The “percent dext^+ CD4^high T cells” value with CD4 T cells [4] (cells from β1ARAc 171–190-immunized mice, P = 0.049 vs control dextramer, Figure 4A) is on record as 0.52 ± 0.08%; in the assay on CD4 T cells [4] (cells from β1ARAc 211–230-immunized mice, P = 0.0003 vs control dextramer, Figure 4C) it was 0.12 ± 0.01%.
The substance “TRARARALVCTVWAISALVS [β1AR 171-190, 20-mer of mouse β1AR peptide library]” gave a T cell responses in [1] (setting [7]) of 2.68 fold. Also, the T cell responses in assay [1] (setting [8]) was determined as 5.13 fold. In addition, the “IL-17A production (in words)” value in assay [5] was “tended to be elevated”. In the assay with A/J mice (hearts), the Myocarditis incidence is on record as 0%, the “Myocarditis incidence (animals with disease/total)” value is listed as 0/5 and the Inflammatory foci came to 0.
In the case of FAGLKKANERADLIAYLKQATK [MCC 82–103], in the assay on CD4 T cells [6], the “percent dext^+ CD4^high T cells” value came out at 0.33 ± 0.03%.
With “Myhc 614–643: cardiac myosin heavy chain-α 614–643 (Ac-SLKLMATLFSTYASADTGDSGKGKGGKKKG; UniProt Q02566 614-643, looked up, fragment)”, in the assay on Balb/c mice, the “Myocarditis by N-terminally acetylated peptide (in words)” value is “can induce significant myocarditis”.
In assay [1] (setting [7]), “TVWAISALVSFLPILMHWWR [β1AR 181-200, 20-mer of mouse β1AR peptide library]” gave a T cell responses of 1.70 fold. Besides, the T cell responses in assay [1] (setting [8]) turned out to be 2.30 fold. Besides, in [5], the “IL-17A production (in words)” value is “tended to be elevated”. For the same substance, in the assay on antigen-primed T cells, the “Th1 cytokine-producing cells (in words)” value is reported as “significantly enhanced”. Also, the “Disease severity (in words)” value with A/J mice (hearts) (individual immunization, non-acetylated peptides) was “mild disease”. In addition, in the assay on A/J mice (hearts), the Myocarditis incidence worked out at 20%, the “Myocarditis incidence (animals with disease/total)” value was 1/5 and the Inflammatory foci is given as 2.
